Experimental data from US20130158024A1, “TRICYCLIC NECROSTATIN COMPOUNDS” (priority 2005, published 2013).
“Also recorded” adds a separate entry of the source. Where a SMILES comes first, the peptide text is derived from it. The star is where a group is joined. Cbz = O=C(OCc1ccccc1)*; CH2F = FC*

Assays:
[1] = tested on: FADD-deficient Jurkat T cells treated with TNF-α; test: Inhibition of necroptosis (CICD) in FADD-deficient Jurkat T cells treated with TNF-α, ATP-based viability; assay type: cell-based, human; details: for antinecroptotic (anti-CICD) activity, in words: FADD-deficient Jurkat cells, TNFα
[2] = molecular target: T1, RIP1 (Homo sapiens, UniProt Q13546); test: In vitro kinase assay: autophosphorylation of immunoprecipitated RIP1; assay type: biochemical; details: radioactive ATP, 30 min at 30° C., autoradiography
T1 construct: RIP has been immunoprecipitated (IP) from lysates of WT and RIP-deficient Jurkat cells using agarose-conjugated anti-RIP antibody; endogenous in cells; host or cells: Jurkat (wild type)
T1 sequence (Q13546 whole entry): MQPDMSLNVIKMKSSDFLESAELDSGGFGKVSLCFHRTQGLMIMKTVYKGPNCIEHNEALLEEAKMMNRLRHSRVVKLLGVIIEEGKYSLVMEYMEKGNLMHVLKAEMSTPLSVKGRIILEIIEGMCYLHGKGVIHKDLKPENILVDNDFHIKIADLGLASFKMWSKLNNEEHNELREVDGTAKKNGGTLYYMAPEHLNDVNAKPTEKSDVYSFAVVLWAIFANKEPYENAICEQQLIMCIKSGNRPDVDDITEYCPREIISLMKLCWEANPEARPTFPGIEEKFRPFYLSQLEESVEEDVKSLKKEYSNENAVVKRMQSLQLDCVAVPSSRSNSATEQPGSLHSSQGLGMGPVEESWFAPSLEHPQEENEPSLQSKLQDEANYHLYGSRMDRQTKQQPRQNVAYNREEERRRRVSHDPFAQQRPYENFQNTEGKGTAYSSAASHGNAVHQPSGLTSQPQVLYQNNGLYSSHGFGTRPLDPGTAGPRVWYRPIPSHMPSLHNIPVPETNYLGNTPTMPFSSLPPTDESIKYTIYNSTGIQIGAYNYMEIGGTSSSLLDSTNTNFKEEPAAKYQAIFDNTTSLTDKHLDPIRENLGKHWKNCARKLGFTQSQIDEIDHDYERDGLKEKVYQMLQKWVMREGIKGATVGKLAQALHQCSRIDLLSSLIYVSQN

[3] = tested on: primary cortical neurons; test: Oxygen-glucose deprivation (OGD) induced death of primary cortical neurons, MAP2 cytoblot; assay type: cell-based; details: OGD 90 minutes, 24 hours recovery; 30 μM
Experimental: Cells were allowed to recover in the presence of the compounds (except for the CNQX/MK801) for 24 hours, and specific neuronal viability was determined using MAP2 cytoblot. Values represent the percentages of live cells normalized to the compound treated cells, which were maintained in glucose-containing, non-deoxygenated media. **—P<0.02. […] Cells were allowed to recover in the presence of the compounds for 24 hours, and specific neuronal viability was determined using MAP2 cytoblot. Values represent the percentages of live cells normalized to the compound treated cells, which were maintained in glucose-containing, non-deoxygenated media. **—P<0.04.

[4] = tested on: CD8+ cells; test: Activation and proliferation of CD8+ cytotoxic T lymphocytes (CTL) suppressed by zVAD.fmk; assay type: cell-based, mouse; details: 100 μM zVAD.fmk, 30 μM compound
Experimental: Numbers of cells were determined using FACS analyses. Cell numbers are normalized to the number of cells in unstimulated control, which was set as 100%. […] Cells were stained with αCD8^+-FITC antibody (Pharmingen) and CD8^+ cell numbers were determined by FACS. Cell numbers are normalized to the number of cells in unstimulated control, which was set as 100%. Percentages of dead cells (line) was determined by co-staining cells with propidium iodide.
Values represent fold increase over unstimulated control.
Cells were stained with αCD8^+-FITC antibody (Pharmingen), and CD8^+ cell numbers were determined by FACS. Cell numbers are normalized to the number of cells in unstimulated control, which was set as 100%. Percentages of dead cells (line) were determined by co-staining cells with propidium iodide.

[5] = tested on: BALB/c 3T3 cells; test: CICD of BALB/c 3T3 cells induced by TNFα/zVAD.fmk; assay type: cell-based, mouse
[6] = tested on: U937 cells; test: Necrosis of U937 cells induced by TNFα and zVAD.fmk (primary and secondary screen), ATP assay; assay type: cell-based, human; details: U937, 72 hours
Experimental: We plated U937 cells in 384-well plates at 5,000-10,000 cells per well in 40-μl phenol red-free RPMI 1640 medium containing 100 μM zVAD.fmk and 40 ng ml^−1 human TNFα using a Multidrop dispenser (Thermo Electron). We added 100 nl of the DiverSetE (5 mg ml^−1 in DMSO, Chembridge) using a Seiko-based custom-built pin transfer robot (Institute of Chemistry and Cell Biology, Harvard Medical School). After 72 hours, we assessed cell viability using a luminescence-based ATP assay (ATPLite-M, PerkinElmer). We also dispensed cells not treated with TNFα in each plate as a positive control. We purchased Nec-1 and other preliminary positive hits from Chembridge for individual retesting.
Using a known paradigm of death receptor mediated caspase-independent cell death in human U937 cells, we established a high-throughput screen in 384 well format for small molecule inhibitors of caspase-independent cell death (CICD). In this system, U937 cells were induced to undergo CICD in the presence of TNFα and zVAD.fmk, and the rate of cell death was determined by an ATP-Lite-M assay, a commercial luminescence-based assay measuring cellular ATP levels (Packard). U937 cells were chosen because these cells can be induced to undergo CICD very efficiently upon TNFα/zVAD treatment in the absence of additional, stress-inducing sensitizing stimuli, such as CHX, making this system perfectly suited for reliable identification of CICD inhibitors. Furthermore, rapid suspension growth kinetics of U937 cells results in the availability of large quantities of cells, which translates into robust signals ideal for high throughput screening. ATP-Lite-M assay was chosen because among all the different assay systems tested, it gives the most consistent and robust signal, which is also critical for high throughput screening. Exposure of U937 cells to TNFα alone led to partial cell death, whereas co-treatment with TNFα and caspase inhibitor zVAD.fmk produced significant increase in the amount of cell death and ATP loss consistent with the published observations. In addition, in the presence of zVAD.fmk, the morphology of cell loss changed from apoptosis with cell shrinkage, nuclear fragmentation, membrane blebbing to necrosis, characterized by cell swelling, increase in cytosolic density, and early loss of plasma membrane integrity. Other cell death assays, such as an MTT assay (mitochondrial metabolism) and Sytox assay (permeability of the plasma membrane), were used as alternative means to validate the screen, and consistently produced results similar to those obtained using ATP-Lite-M assay, which confirmed that the ATP-Lite-M assay can be used to accurately measure the extent of CICD.
In a primary screen, U-937 cells (5×10^5 or 7.5×10^5 cells/ml) were first exposed to zVAD-fmk (100 μM). Thirty minutes later the same cells were exposed to a chemical compound from the library (5 mg/ml, dissolved in 0.1-0.5 μl of DMSO, giving a final DMSO concentration of 0.3% to 1.5%). After an additional thirty minutes, TNFα (40 ng/ml) was added to the cell culture medium. The cells were then incubated at 37 C for 72 hours, and were then assayed for cellular ATP levels. […] Compounds which maintained cellular ATP levels were compounds which blocked necrosis triggered by zVAD-fmk and TNFα.
In a secondary screen, the compounds identified from the first screen, above, to decrease necrosis induced by zVAD-fmk and TNFα were assayed for their potency. Serial dilution of each chemical compound was performed and the compounds were administered to U-937 cells, as per the primary screen. The concentrations of each compound were 70 μM, 23 μM, 8 μM, and 2.5 μM. The level of necrosis occurring in response to zVAD-fmk, TNFα, and the various concentrations of chemical compounds was assayed as described above for the primary screen.

[7] = tested on: U-937 cells; test: Necrosis of low density U-937 cells induced by zVAD-fmk and DMSO, ATP levels; assay type: cell-based, human; details: U-937 1×10^5 cells/ml, 72 hours
Experimental: Methods for the identification of chemical compounds that decrease cell necrosis induced, for example, by zVAD-fmk/DMSO at a low cell density (e.g., 1×10^5 cells/ml) are achieved essentially as described above, except, the inducer of necrosis is zVAD-fmk/DMSO, rather than zVAD-fmk/TNFα.
Exposure of low density U-937 cells (1×10^5 cells/ml) to zVAD-fmk (100 μM) and DMSO (0.5%) for 72 hours results in cell death by necrosis. The compounds identified to decrease cell necrosis triggered by zVAD-fmk and TNFα, compounds 115807, 115681, 210227, and 215686 from the ChemBridge chemical library, were also evaluated for their ability to decrease cell necrosis induced by zVAD-fmk and DMSO. The cells (1×10^5 cells/ml) were first exposed to zVAD-fmk, and then thirty minutes later to the above-identified small molecules that decrease necrosis. After an additional 30 minutes, the cells were exposed to DMSO. 72 hours after exposure to the compounds, cellular ATP levels were measured, as described above.

[8] = tested on: Primary mouse CD4+ and CD8+ T cells; test: Activation-induced cell death (AICD) of primary CD4+ and CD8+ T cells; assay type: cell-based; details: re-activated CD4+ cells
Experimental: Cell viability was assessed using Sytox Green (Molecular Probes) (CD8) or propidium iodide exclusion (CD4) assays in FIG. 17A or ATP assay in FIG. 17B. Numbers represent the percentages of live cells normalized to the corresponding compound treated controls lacking αCD3.

[9] = tested on: FADD deficient Jurkat cells; details: compound in the absence of TNFα
[10] = tested on: Jurkat T cells; test: Necrosis (CICD) of Jurkat T cells induced by Fas ligand, cycloheximide and zVAD, ATP assay; assay type: cell-based, human; details: FasL/CHX/zVAD
Experimental: Jurkat cells were treated with 5 ng/ml of FasL without (A) or with cyclohexamide (CHX) (B) to induce apoptosis, or 5 ng/ml FasL, 1 μg/ml of CHX and 100 μM of zVAD.fmk to induce CICD (B). […] Cell viability was determined after 24 hours of incubation with indicated reagents using CellTiter-Glo ATP assay. The values represent viability relative to the control Jurkat cells without the treatment of FasL, which was set as 100% viability.
FIG. 34A is a graph showing the results of treating Jurkat T cells with Fas ligand (5 ng/ml), cyclohexamide (1 μg/ml) and zVAD (100 μM) in the presence of the indicated amounts of anti-necrotic compounds (4) and (5). Viability was determined 36 hours later using an ATP assay. The viability values are relative to the samples lacking Fas ligand, which were used as 100% viability controls. FIG. 34B is a graph as in FIG. 34A, in which the anti-necrotic compounds are (19) and (20).
Compounds were also tested in another necrosis assay utilizing human Jurkat T cells, Fas ligand to induce cell death, and zVAD to inhibit the apoptosis pathway. After 36 hours, cell viability was measure by the commercial CellTiter ATP cell viability assay (Promega).

[11] = tested on: L929 cells; test: TNFα-induced CICD of L929 cells, ATP assay; assay type: cell-based, mouse; details: no caspase inhibitor
Experimental: Cell viability was determined using ATP-Lite-M ATP assay (Packard). The values represent viability relative to the control lacking TNFα, which was set as 100% viability.
Cell viability in this and subsequent panels was determined by ATP-based viability assay. Numbers represent percentages of the live cells normalized to those in the untreated control wells. Throughout, error bars represent standard deviations. […] Numbers represent viability normalized to that of the corresponding compound-treated cells in the absence of FasL. […] Numbers represent viability normalized to that of the corresponding compound-treated cells in the absence of dimerizer. […] Cells were treated with TNFα (E, F, H), zVAD.fmk (E, F), or CHX (F) for 16 (F) or 24 (E, H) hours. Numbers represent viability normalized to that of the compound-treated cells in the absence of TNFα.

O=C1NC(=S)NC1Cc1c[nH]c2ccccc12 (stereo not shown) [Nec-1i]
antinecroptotic (anti-CICD) activity, in words [1]: does not inhibit CICD in vitro; also recorded: completely abolished antinecroptotic activity | inhibition of RIP1 autophosphorylation, in words [2]: showed significantly reduced activity in inhibiting RIP1 autophosphorylation | protection from OGD-induced neuronal death, in words [3]: failed to rescue neuronal cell death | restoration of CTL activation/proliferation suppressed by zVAD.fmk, in words [4]: does not affect T cell proliferation; also recorded: failed to restore T cell proliferation

Cn1cnc(N)c2ncnc1-2 [Compound 3MA, 3-methyladenine, reference compound]
antinecroptotic (anti-CICD) activity, in words [1]: necroptosis proceeded normally in the presence of 3-methyladenine (3MA) | inhibition of CICD in 3T3 cells, in words [5]: necroptosis proceeded normally in the presence of 3-methyladenine (3MA)

COc1ccc(/C=C/C(=O)/C=C/c2ccc(OC)c(OC)c2)cc1OC [Compound 215686]
inhibition of necrosis induced by TNFα/zVAD.fmk, in words [6]: identified to decrease necrosis in response to exposure of the cell to zVAD-fmk and TNFα | decrease of necrosis induced by zVAD-fmk/DMSO, in words [7]: also decreased necrosis induced by zVAD-fmk/DMSO

Cc1cc(O)c(C(=O)/C=C/c2ccc(O)c([N+](=O)[O-])c2)c(=O)o1 [Compound 115681]
inhibition of necrosis induced by TNFα/zVAD.fmk, in words [6]: identified to decrease necrosis in response to exposure of the cell to zVAD-fmk and TNFα | decrease of necrosis induced by zVAD-fmk/DMSO, in words [7]: also decreased necrosis induced by zVAD-fmk/DMSO

COC(=O)C[C@H](NC(=O)[C@H](C)NC(=O)[C@@H](NC(=O)OCc1ccccc1)C(C)C)C(=O)CF [zVAD.fmk, N-benzyloxycarbonyl-Val-Ala-Asp-(OMe) fluoromethyl ketone, reference compound] (Cbz-Val-Ala-Asp(OMe)-CH2F)
protection from OGD-induced neuronal death, in words [3]: did not detect any protection by zVAD.fmk | effect on AICD, compound alone, in words [8]: only partially protective

COc1ccc2c(c1)C1=NN(C(C)=O)C(c3ccc(F)cc3)C1CC2 (stereo not shown) [Nec-3]
EC50 ([1]; Homo sapiens, Jurkat, concentration required to rescue 50% of cell death, TNFα for 36 hours, ATP assay, read-out: EC50): 970 nM | inhibition of necrosis induced by TNFα/zVAD.fmk, in words ([6]; listed as 140): identified as an inhibitor of necrosis | inhibition of necrosis induced by TNFα/zVAD.fmk, in words ([6]; listed as 210227): identified to decrease necrosis in response to exposure of the cell to zVAD-fmk and TNFα | decrease of necrosis induced by zVAD-fmk/DMSO, in words [7]: also decreased necrosis induced by zVAD-fmk/DMSO | LD50 [9]: 143 µM

CCCNC(=O)[C@H]1O[C@@H]1C(=O)N[C@H](C(=O)N1CCC[C@H]1C(=O)OC)[C@@H](C)CC [Ca-074-Me, reference compound]
inhibition of CICD/necrosis of Jurkat cells, in words [10]: inhibits CICD in Jurkat and 3T3 cells | protection of L929 cells from TNFα-induced CICD, in words [11]: neither these compounds nor geldanamycin work in L929 cells | inhibition of CICD in 3T3 cells, in words [5]: inhibits CICD in Jurkat and 3T3 cells

CN1C(=O)C(Cc2c[nH]c3ccccc23)NC1=S (stereo not shown) [Compound 115807]
inhibition of necrosis induced by TNFα/zVAD.fmk, in words [6]: identified to decrease necrosis in response to exposure of the cell to zVAD-fmk and TNFα | decrease of necrosis induced by zVAD-fmk/DMSO, in words [7]: also decreased necrosis induced by zVAD-fmk/DMSO
